Measurements reported in patent publication US8080563B2, “Bicyclic heteroaryl inhibitors of PDE4” (Kalypsys, priority 2006, dated 2011).

Assays:
[1] = target: T1, PDE4B (Homo sapiens, UniProt Q07343); test: Coupled PDE/AK bioluminescent assay of PDE inhibition; type: biochemical; conditions: PDE4B catalytic domain
T1 construct: hex-histidine (His6) (N); made in house
Source text: Phosphodiesterases regulate the activity of the second messenger cyclic adenosine monophosphate (cAMP) by hydrolyzing cAMP to adenosine monophosphate (AMP). We developed a novel coupled PDE/AK bioluminescent high-throughput assay to measure the activity of phosphodiesterases. In the PDE/AK assay, the AMP produced from the hydrolysis of cAMP by phosphodiesterase is converted to adenosine diphosphate (ADP) by the phosphotransferase activity of adenylate kinase (also known as ADK or myokinase). Adenylate kinase will catalyze the conversion of 1 mole of AMP and 1 mole of ATP into 2 moles of ADP. Thus the conversion of AMP to ADP will result in the subsequent loss of ATP. The decrease in ATP concentration can be monitored as light output using luciferase in a reaction that requires ATP to produce light. The PDE/AK assay uses luciferase, which catalyzes the production of light from ATP present in the reaction mix. The amount of emitted light is inversely proportional to the level of AMP present in the reaction. Test compounds are incubated with the phosphodiesterases and phosphodiesterase inhibitors will decrease the rate of cAMP hydrolysis and decrease the subsequent production of AMP. Thus phosphodiesterase inhibitors will decrease the conversion of ATP to ADP and result in the greatest emission of light.
Compounds may be screened for functional potency in in vitro biochemical assays for their ability to inhibit the activity of phosphodiesterase (PDE) enzymes. A novel coupled PDE/AK assay was utilized to measure the inhibitory activity of compounds on PDE isoforms. The catalytic domain of PDE4B was fused to an amino-terminus hex-histidine affinity tag and purified. PDE4B enzyme was incubated with compounds for 10 minutes. Cyclic AMP substrate, ATP and adenylate kinase were then added to the PDE enzyme mix and incubated for 45 minutes at room temperature. A commercial ATP detection assay, Perkin Elmer's easyLite ATP detection reagent, was then added to measure the relative amount of ATP present in the reaction. After […], the luminescent signal was quantitated with either the Perkin Elmer Viewlux or Molecular Devices Acquest or Analyst. Roflumilast and Rolipram are the positive controls used in the assay.

[2] = system: Lacrimal Gland Inflammation-Induced Dry Eye in Rabbits; test: Lacrimal gland inflammation-induced dry eye in rabbits (corneal staining, tear breakup time); type: in vivo; conditions: topical ocular BID; for Activity at Percent Concentration Tested 1 × 10^−2: 1 × 10^−2 percent concentration; for Activity at Percent Concentration Tested 1 × 10^−4: 1 × 10^−4 percent concentration; for Activity at Percent Concentration Tested 1 × 10^−6: 1 × 10^−6 percent concentration
Source text: A more detailed description of the assay used herein may be found in Naglehout, T J et al. 2005, “Preservation of Tear Film Integrity and Inhibition of Corneal Injury by Dexamethasone in a Rabbit Model of Lacrimal Gland Inflammation-Induced Dry Eye,” J. Ocular Pharm. Ther., 21:2. 139-148, the disclosure of which is hereby incorporated by reference as if written herein in its entirety.
Rabbits (n=4/group) were randomized into treatment groups and dosed topically BID with maxidex vehicle or test drug beginning one day prior to initiation of dry eye. Each rabbit received bilateral lacrimal gland injections of saline or ConA (300 μg/30 μl) and topical ocular dosing was continued BID throughout the study.
Desiccation was initiated 1-2 hours following lacrimal gland injection by placing conscious rabbits in the environmental chamber (10-15% humidity/72° F.). Following 72 consecutive hours of exposure to this dry environment, the animals were anesthetized and sutures were placed in each upper and lower eyelid and lifted to form a corneal/conjunctival cup. Methylene blue dye (1 mL, 1% in dH2O) was added to the cup for three minutes and the excess removed by washing with 200 mL BSS®. The contralateral eye was then stained using the same procedure. Rabbits were euthanized immediately following the staining procedure and the eyes were excised. The corneas were isolated with a trephine and the 9.5-mm punch of the cornea was placed in 2 mL acetone/saturated sodium sulfate (7:3, vol./vol.). Absorbance of the extracted dye was determined at 660 nm.
TBUT was quantified in a separate group of treated animals. TBUT was determined by instilling 5 μL sodium fluorescein into the cul de sac and manually blinking the lids to distribute the fluorescein within the tear film. Under slit lamp observation, the eye was held open and the time whereby one or more black spots or streaks appeared in the precorneal tear film was recorded. The rabbits were euthanized 3 days following ConA injection.

T1 sequence (Q07343 330-659 limits assumed, species assumed): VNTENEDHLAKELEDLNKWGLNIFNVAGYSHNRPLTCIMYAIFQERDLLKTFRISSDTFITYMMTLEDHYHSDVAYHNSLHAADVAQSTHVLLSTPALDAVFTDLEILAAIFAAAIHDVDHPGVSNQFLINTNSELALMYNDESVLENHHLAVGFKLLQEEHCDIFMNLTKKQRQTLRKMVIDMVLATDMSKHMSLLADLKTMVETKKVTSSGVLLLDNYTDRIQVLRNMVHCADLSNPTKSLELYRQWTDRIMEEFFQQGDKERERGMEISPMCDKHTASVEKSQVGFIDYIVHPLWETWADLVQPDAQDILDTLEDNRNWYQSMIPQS

IC50 [1] [nM] | Structure (SMILES) | other results
≤ 1000 | COc1ccc2c(Nc3c(Cl)cncc3Cl)cc(=O)[nH]c2c1OC1CCCC1 [Example 1, 8-(Cyclopentyloxy)-4-(3,5-dichloropyridin-4-ylamino)-7-methoxyquinolin-2(1H)-one] | Activity at Percent Concentration Tested 1 ([2]; 1 percent concentration): Inactive; Activity at Percent Concentration Tested 1 × 10^−1 ([2]; 1 × 10^−1 percent concentration): Inactive; Activity at Percent Concentration Tested 1 × 10^−2 [2]: Inactive
≤ 1000 | COc1ccc2c(Nc3c(Cl)cncc3Cl)cc(=O)[nH]c2c1OCC1CC1 [Example 3, 8-(Cyclopropylmethoxy)-4-(3,5-dichloropyridin-4-ylamino)-7-methoxyquinolin-2(1H)-one] | –
≤ 1000 | COc1ccc2c(Nc3c(C)cncc3C)cc(=O)[nH]c2c1OCC1CC1 [Example 8, 8-(Cyclopropylmethoxy)-4-(3,5-dimethylpyridin-4-ylamino)-7-methoxyquinolin-2(1H)-one] | Activity at Percent Concentration Tested 1 × 10^−2 [2]: Inactive; Activity at Percent Concentration Tested 1 × 10^−4 [2]: Inactive; Activity at Percent Concentration Tested 1 × 10^−6 [2]: Inactive
≤ 1000 | COc1ccc2c(Nc3c(Cl)cncc3Cl)cc(=O)[nH]c2c1OCCCCCC(=O)O [Example 11, 6-(4-(3,5-Dichloropyridin-4-ylamino)-7-methoxy-2-oxo-1,2-dihydroquinolin-8-yloxy)hexanoic acid] | –
≤ 1000 | COc1ccc2c(Nc3c(Cl)cncc3Cl)cc(=O)[nH]c2c1OCCCCCN(C)C [Example 14, 4-(3,5-Dichloropyridin-4-ylamino)-8-(5-(dimethylamino)pentyloxy)-7-methoxyquinolin-2(1H)-one] | –

More lines, now with the values behind:

Structure (SMILES) | IC50 [1] [nM] | other results
COc1ccc2c(Oc3c(Cl)cncc3Cl)cc(=O)[nH]c2c1OC1CCCC1 [Example 2, 8-(Cyclopentyloxy)-4-(3,5-dichloropyridin-4-yloxy)-7-methoxyquinolin-2(1H)-one] | ≤ 1000 | –
COc1ccc2c(Nc3c(Cl)cncc3Cl)cc(=O)n(C)c2c1OC1CCCC1 [Example 4, 8-(Cyclopentyloxy)-4-(3,5-dichloropyridin-4-ylamino)-7-methoxy-1-methylquinolin-2(1H)-one] | ≤ 1000 | –
COc1ccc2c(Nc3c(C)cncc3C)cc(=O)[nH]c2c1OC1CCCC1 [Example 5, 8-(Cyclopentyloxy)-4-(3,5-dimethylpyridin-4-ylamino)-7-methoxyquinolin-2(1H)-one] | ≤ 1000 | Activity at Percent Concentration Tested 1 × 10^−2 [2]: Inactive; Activity at Percent Concentration Tested 1 × 10^−4 [2]: Inactive; Activity at Percent Concentration Tested 1 × 10^−6 [2]: Inactive
COc1ccc2c(Nc3c(Cl)cncc3Cl)c(Br)c(=O)n(Br)c2c1OC1CCCC1 [Example 6, 1,3-Dibromo-8-(cyclopentyloxy)-4-(3,5-dichloropyridin-4-ylamino)-7-methoxyquinolin-2(1H)-one] | ≤ 1000 | –
COc1ccc2c(Nc3c(Cl)cncc3Cl)c(Br)c(=O)[nH]c2c1OC1CCCC1 [Example 7, 3-Bromo-8-(cyclopentyloxy)-4-(3,5-dichloropyridin-4-ylamino)-7-methoxyquinolin-2(1H)-one] | ≤ 1000 | –
COc1ccc2c(Nc3c(Cl)cncc3Cl)cc(=O)n(CCO)c2c1OC1CCCC1 [Example 9, 8-(Cyclopentyloxy)-4-(3,5-dichloropyridin-4-ylamino)-1-(2-hydroxyethyl)-7-methoxyquinolin-2(1H)-one] | ≤ 1000 | –
COc1ccc2c(Nc3c(Cl)cncc3Cl)cc(=O)n(CCN(C)C)c2c1OC1CCCC1 [Example 10, 8-(Cyclopentyloxy)-4-(3,5-dichloropyridin-4-ylamino)-1-(2-(dimethylamino)ethyl)-7-methoxyquinolin-2(1H)-one] | ≤ 1000 | –
COc1ccc2c(Nc3c(C)cncc3C)cc(=O)[nH]c2c1OCC(C)C [Example 12, 4-(3,5-Dimethylpyridin-4-ylamino)-8-isobutoxy-7-methoxyquinolin-2(1H)-one] | ≤ 1000 | –
COc1ccc2c(Nc3c(Cl)cncc3Cl)cc(=O)[nH]c2c1OCCCCN(C)C [Example 13, 4-(3,5-Dichloropyridin-4-ylamino)-8-(4-(dimethylamino)butoxy) -7-methoxyquinolin-2(1H)-one] | ≤ 1000 | –
